Values of other authors in patent publication US6103487A, “Method of treating cancer” (Merck & Co., Inc., priority 1998, dated 2000).

Legend:
[1] = test system: farnesyl-protein transferase; conditions: by inhibiting HMG-CoA reductase
[2] = test system: Ras; conditions: inhibits the rate-limiting step in the isoprenoid biosynthetic pathway; positive control

SMILES | Indirect inhibition of farnesyl-protein transferase in vivo [1] | block of Ras processing in cells [2]
CC[C@H](C)C(=O)O[C@H]1CCC=C2C=C[C@H](C)[C@H](CC[C@@H]3C[C@@H](O)CC(=O)O3)[C@H]21 [compactin] | Indirect inhibition of farnesyl-protein transferase in vivo has been demonstrated | –
CC[C@H](C)C(=O)O[C@H]1C[C@@H](C)C=C2C=C[C@H](C)[C@H](CC[C@@H]3C[C@@H](O)CC(=O)O3)[C@H]21 [lovastatin] | Indirect inhibition of farnesyl-protein transferase in vivo has been demonstrated | blocks Ras processing in cells
